{
  "source": "paper PMC12061832",
  "about": "“Exploring novel dilazep derivatives as hENT1 inhibitors and potentially covalent molecular tools” (Purinergic Signalling, 2024)",
  "note": "“And” between values parts separate entries of the source, which are not always exact repeats. Equal entries are not always repeated.",
  "data": [
    {"biological_target": "T1, hENT1 (Homo sapiens, UniProt Q99808)", "T1 construct": "performed on erythrocyte cell membranes endogenously expressing the transporter; tissue Sanquin Bloedvoorziening, Amsterdam, The Netherlands; host or cells: erythrocyte membranes (endogenous expression)", "T1 sequence (Q99808 1-456)": "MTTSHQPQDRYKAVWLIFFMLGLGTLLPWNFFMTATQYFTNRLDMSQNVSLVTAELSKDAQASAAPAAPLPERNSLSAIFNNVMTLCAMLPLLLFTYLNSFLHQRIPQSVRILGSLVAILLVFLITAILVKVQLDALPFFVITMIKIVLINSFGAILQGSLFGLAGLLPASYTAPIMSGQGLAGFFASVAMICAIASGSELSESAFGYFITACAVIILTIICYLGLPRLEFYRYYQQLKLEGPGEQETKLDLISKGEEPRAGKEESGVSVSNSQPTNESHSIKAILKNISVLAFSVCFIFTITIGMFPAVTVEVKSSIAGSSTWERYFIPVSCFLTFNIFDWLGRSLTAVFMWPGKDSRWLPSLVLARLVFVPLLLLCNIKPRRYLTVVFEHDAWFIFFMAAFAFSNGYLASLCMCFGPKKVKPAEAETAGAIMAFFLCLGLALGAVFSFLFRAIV", "assay": "[3H]NBTI displacement assay on erythrocyte membranes", "assay_type": "binding", "conditions": "1 µM inhibitor; [3H]NBTI displacement; mean (individual values) of two experiments", "experimental": "(§1) Dilazep and ST7092 were obtained from ASTA-Werke AG (Bielefeld, Germany) and Chemie Linz AG (Linz, Austria), respectively. Radioligand displacement assays were performed as previously described. In brief, the experiments were performed on erythrocyte membranes (Sanquin Bloedvoorziening, Amsterdam, The Netherlands) using a single concentration of 1 µM or multiple concentrations (ranging from 10^–10 to 10^–6) of unlabeled inhibitors in the presence of 4 nM [^3H]NBTI at 10 °C for 1 h in assay buffer (50 mM Tris–HCl, pH 7.4, 0.1% w/v CHAPS). Non-specific binding (NSB) was assessed with 10 µM unlabeled NBTI. […] Subsequently, [^3H]NBTI was added to the preincubated and control samples (containing erythrocyte membranes, unlabeled inhibitor and radioligand) and both types of samples were incubated for another hour. Incubation was terminated by rapid vacuum filtration over Whatman™ UniFilter™ 96-well GF/C microplates using a FilterMate™ Universal Harvester (PerkinElmer, Groningen, The Netherlands). Subsequently, the plates were washed ten times with ice-cold wash buffer (50 mM Tris–HCl, pH 7.4). Thereafter, the filters were dried for 45 min at 55 °C and 25 µL of Microscint (PerkinElmer) was added per well. The filter-bound radioactivity was determined by scintillation spectrometry using a MicroBeta^2 2450 Microplate Counter (PerkinElmer).\n(§2) For data analysis, dilazep and ST7092 were used as positive controls. All experimental data was analyzed using GraphPad Prism 10.0.2 software (GraphPad Software Inc., San Diego, CA, USA). [^3H]NBTI assays were baseline-corrected with NSB and normalized to this value (0%) and TB (100%). The radioligand displacement curves were fitted to a one-site binding model by nonlinear regression from which the pIC50 values were obtained. […] Data shown represent the mean ± SD of at least two or mean ± SEM of at least three individual experiments each performed in duplicate.\n(§3) To determine the affinities of the non-covalent hENT1 inhibitors, a [^3H]NBTI displacement assay was performed on erythrocyte cell membranes endogenously expressing the transporter. All compounds were initially screened at a concentration of 1 µM to provide the percentage displacement. If more than 75% displacement was observed, compounds were subsequently characterized in full concentration-effect curves to determine their affinity.", "values": [
      {"compound": "3-(4-(3-((3-(methylamino)benzoyl)oxy)propyl)piperazin-1-yl)propyl 3,4,5-trimethoxybenzoate [Compound 6j]", "% displacement at 1 μM": "17 (16, 19) %"},
      {"compound": "3-(4-(3-((4-(methylamino)benzoyl)oxy)propyl)piperazin-1-yl)propyl 3,4,5-trimethoxybenzoate [Compound 6i]", "% displacement at 1 μM": "6 (3, 9) %"},
      {"compound": "COc1cc(C(=O)OCCCN2CCN(CCCOC(=O)c3ccccc3)CC2)cc(OC)c1OC", "note": "[Compound 6a, 3-(4-(3-(benzoyloxy)propyl)piperazin-1-yl)propyl 3,4,5-trimethoxybenzoate]", "% displacement at 1 μM": "-3 (0, -5) %"},
      {"compound": "COc1cc(C(=O)OCCCN2CCN(CCCOC(=O)c3ccc(C)cc3)CC2)cc(OC)c1OC", "note": "[Compound 6b, 3-(4-(3-((4-methylbenzoyl)oxy)propyl)piperazin-1-yl)propyl 3,4,5-trimethoxybenzoate]", "% displacement at 1 μM": "7 (10, 3) %"},
      {"compound": "COc1cc(C(=O)OCCCN2CCN(CCCOC(=O)c3ccc(C)c(C)c3)CC2)cc(OC)c1OC", "note": "[Compound 6c, 3-(4-(3-((3,4-dimethylbenzoyl)oxy)propyl)piperazin-1-yl)propyl 3,4,5-trimethoxybenzoate]", "% displacement at 1 μM": "-7 (-7, -8) %"},
      {"compound": "COc1cc(C(=O)OCCCN2CCN(CCCOC(=O)c3cc(C)cc(C)c3)CC2)cc(OC)c1OC", "note": "[Compound 6d, 3-(4-(3-((3,5-dimethylbenzoyl)oxy)propyl)piperazin-1-yl)propyl 3,4,5-trimethoxybenzoate]", "% displacement at 1 μM": "-4 (-4, -4) %"},
      {"compound": "COc1cc(C(=O)OCCCN2CCN(CCCOC(=O)c3ccc(Cl)cc3)CC2)cc(OC)c1OC", "note": "[Compound 6e, 3-(4-(3-((4-chlorobenzoyl)oxy)propyl)piperazin-1-yl)propyl 3,4,5-trimethoxybenzoate]", "% displacement at 1 μM": "not able to inhibit [^3H]NBTI binding and 1 (3, -1) %"},
      {"compound": "COc1cc(C(=O)OCCCN2CCN(CCCOC(=O)c3ccc(Cl)c(Cl)c3)CC2)cc(OC)c1OC", "note": "[Compound 6f, 3-(4-(3-((3,4-dichlorobenzoyl)oxy)propyl)piperazin-1-yl)propyl 3,4,5-trimethoxybenzoate]", "% displacement at 1 μM": "-4 (-7, -1) %"},
      {"compound": "COc1cc(C(=O)OCCCN2CCN(CCCOC(=O)c3cccc(N(C)C)c3)CC2)cc(OC)c1OC", "note": "[Compound 6g, 3-(4-(3-((3-(dimethylamino)benzoyl)oxy)propyl)piperazin-1-yl)propyl 3,4,5-trimethoxybenzoate]", "% displacement at 1 μM": "21 (21, 21) %"},
      {"compound": "COc1cc(C(=O)OCCCN2CCN(CCCOC(=O)c3ccc(N(C)C)cc3)CC2)cc(OC)c1OC", "note": "[Compound 6h, 3-(4-(3-((4-(dimethylamino)benzoyl)oxy)propyl)piperazin-1-yl)propyl 3,4,5-trimethoxybenzoate]", "% displacement at 1 μM": "19 (11, 26) %"},
      {"compound": "COc1ccccc1C(=O)OCCCN1CCN(CCCOC(=O)c2cc(OC)c(OC)c(OC)c2)CC1", "note": "[Compound 6k, 3-(4-(3-((2-methoxybenzoyl)oxy)propyl)piperazin-1-yl)propyl 3,4,5-trimethoxybenzoate]", "% displacement at 1 μM": "little to no displacement and 6 (5, 8) %"},
      {"compound": "COc1cccc(C(=O)OCCCN2CCN(CCCOC(=O)c3cc(OC)c(OC)c(OC)c3)CC2)c1", "note": "[Compound 6l, 3-(4-(3-((3-methoxybenzoyl)oxy)propyl)piperazin-1-yl)propyl 3,4,5-trimethoxybenzoate]", "% displacement at 1 μM": "little to no displacement and 9 (3, 16) %"},
      {"compound": "COc1ccc(C(=O)OCCCN2CCN(CCCOC(=O)c3cc(OC)c(OC)c(OC)c3)CC2)cc1", "note": "[Compound 6m, 3-(4-(3-((4-methoxybenzoyl)oxy)propyl)piperazin-1-yl)propyl 3,4,5-trimethoxybenzoate]", "% displacement at 1 μM": "around 30% and 36 (39, 33) %"},
      {"compound": "COc1ccccc1C(=O)OCCCN1CCN(CCCOC(=O)c2ccccc2OC)CC1", "note": "[Compound 6p, piperazine-1,4-diylbis(propane-3,1-diyl) bis(2-methoxybenzoate)]", "% displacement at 1 μM": "7 (15, -1) %"},
      {"compound": "COc1cccc(C(=O)OCCCN2CCN(CCCOC(=O)c3cccc(OC)c3)CC2)c1", "note": "[Compound 6q, piperazine-1,4-diylbis(propane-3,1-diyl) bis(3-methoxybenzoate)]", "% displacement at 1 μM": "8 (11, 4) %"},
      {"compound": "COc1ccc(C(=O)OCCCN2CCN(CCCOC(=O)c3ccc(OC)cc3)CC2)cc1", "note": "[Compound 6r, piperazine-1,4-diylbis(propane-3,1-diyl) bis(4-methoxybenzoate)]", "% displacement at 1 μM": "-8 (-5, -11) %"},
      {"compound": "COc1ccc(C(=O)OCCCN2CCN(CCCOC(=O)c3ccc(OC)c(OC)c3)CC2)cc1OC", "note": "[Compound 6s, piperazine-1,4-diylbis(propane-3,1-diyl) bis(3,4-dimethoxybenzoate)]", "% displacement at 1 μM": "around 30% and 27 (33, 21) %"},
      {"compound": "COc1cc(OC)cc(C(=O)OCCCN2CCN(CCCOC(=O)c3cc(OC)cc(OC)c3)CC2)c1", "note": "[Compound 6t, piperazine-1,4-diylbis(propane-3,1-diyl) bis(3,5-dimethoxybenzoate)]", "% displacement at 1 μM": "little to no displacement and 8 (12, 4) %"},
      {"compound": "COc1ccc(C(=O)OCCCN2CCN(CCCOC(=O)c3ccccc3OC)CC2)cc1OC", "note": "[Compound 6u, 3-(4-(3-((2-methoxybenzoyl)oxy)propyl)piperazin-1-yl)propyl 3,4-dimethoxybenzoate]", "% displacement at 1 μM": "little to no displacement and 12 (16, 9) %"},
      {"compound": "COc1cc(OC)cc(C(=O)OCCCN2CCN(CCCOC(=O)c3ccc(OC)c(OC)c3)CC2)c1", "note": "[Compound 6v, 3-(4-(3-((3,5-dimethoxybenzoyl)oxy)propyl)piperazin-1-yl)propyl 3,4-dimethoxybenzoate]", "% displacement at 1 μM": "around 30% and 34 (42, 26) %"}
    ]},
    {"biological_target": "T1, hENT1", "assay": "[3H]NBTI displacement assay on erythrocyte membranes", "assay_type": "binding", "conditions": "compared to ST7092", "experimental": "as §1, §2, §3", "units": {"decrease in affinity compared to ST7092": "fold"}, "values": [
      {"compound": "COc1ccc(C(=O)OCCCN2CCN(CCCOC(=O)c3cc(OC)c(OC)c(OC)c3)CC2)cc1OC", "note": "[Compound 6n, 3-(4-(3-((3,4-dimethoxybenzoyl)oxy)propyl)piperazin-1-yl)propyl 3,4,5-trimethoxybenzoate]", "decrease in affinity compared to ST7092": 80},
      {"compound": "COc1cc(OC)cc(C(=O)OCCCN2CCN(CCCOC(=O)c3cc(OC)c(OC)c(OC)c3)CC2)c1", "note": "[Compound 6o, 3-(4-(3-((3,5-dimethoxybenzoyl)oxy)propyl)piperazin-1-yl)propyl 3,4,5-trimethoxybenzoate]", "decrease in affinity compared to ST7092": 80}
    ]},
    {"biological_target": "T1, hENT1", "assay": "[3H]NBTI displacement assay on erythrocyte membranes", "assay_type": "binding", "conditions": "erythrocyte membranes, 4 nM [3H]NBTI, 10 °C, 1 h", "experimental": "as §1, §2, §3", "units": {"Ki": "µM"}, "values": [
      {"compound": "COc1ccc(C(=O)OCCCN2CCN(CCCOC(=O)c3cc(OC)c(OC)c(OC)c3)CC2)cc1OC", "note": "[Compound 6n, 3-(4-(3-((3,4-dimethoxybenzoyl)oxy)propyl)piperazin-1-yl)propyl 3,4,5-trimethoxybenzoate]", "Ki": 0.136},
      {"compound": "COc1cc(OC)cc(C(=O)OCCCN2CCN(CCCOC(=O)c3cc(OC)c(OC)c(OC)c3)CC2)c1", "note": "[Compound 6o, 3-(4-(3-((3,5-dimethoxybenzoyl)oxy)propyl)piperazin-1-yl)propyl 3,4,5-trimethoxybenzoate]", "Ki": 0.146},
      {"compound": "COc1cc(C(=O)OCCCN2CCN(CCCOC(=O)c3cc(OC)c(OC)c(OC)c3)CC2)cc(OC)c1OC", "note": "[ST7092, reference compound]", "Ki": 0.00179}
    ]}
  ]
}
